Assay results as given in US6495571B1, “Pyridine compounds, use and preparation thereof” (Southern Research Institute, priority 1999, dated 2002).
Like-named read-outs stand apart in the source and are kept apart here. Marks after values point to notes of the source that are not given here.

Experiments:
cancer = assay: Anti-cancer activity (test not specified)
[1] = system: P388/BCNU (carmustine-resistant) leukemia; assay: Antitumor activity against IP-implanted P388/BCNU leukemia
[2] = system: P388/CPA (cyclophosphamide-resistant) leukemia; format: in vivo, CD2F1 female mice
[3] = system: human MX-1 mammary tumor (sc, 30-40 mg fragments); assay: In vivo antitumor activity, s.c.-implanted MX-1 xenograft; design: species or system Athymic mice (Ncr-nu)
[4] = system: human MX-1 mammary tumor (ic, 10^6 cells); assay: In vivo antitumor activity, i.c.-implanted MX-1 xenograft; conditions: for Median % ILS (dying mice only) / Tumor-Free-Surv/Total: Days 1-5; for Median % ILS (based on dying mice only) / Survivors: optimal doses (LD10 or less), schedule QD1-5, administered LP.
[5] = system: P388/L-PAM (melphalan-resistant) leukemia
Cytotoxicity in vitro = format: cell-based
[6] = IP 20.0 mg/kg/dose, Q1D × 1 (1)
[7] = IP 30.0 mg/kg/dose, Q1D × 1 (1)
[8] = IP 175.0 mg/kg/dose, Q1D × 1 (1)
[9] = IP 265.0 mg/kg/dose, Q1D × 1 (1)
[10] = oral (gavage) 135 mg/kg/dose, Days 13-17
[11] = IP 60.0 mg/kg/dose, Q1D × 5 (1)
[12] = IP 90.0 mg/kg/dose, Q1D × 5 (1)
[13] = IP 135.0 mg/kg/dose, Q1D × 5 (1)
[14] = IP 15.0 mg/kg/dose, Q1D × 1 (1)

Question: Which “anti-cancer activity (in words)” value (cancer) does the source give for CCOc1nc(C(Cl)(Cl)Cl)c(Cl)c(OCC)c1Cl [3,5-dichloro-4,6-diethoxy-2-(trichloromethyl)pyridine] here?
Answer: active anti-cancer activity

Question: Which “anti-cancer activity (in words)” value (cancer) does the source give for CCOc1c(Cl)c(OC)nc(C(Cl)(Cl)Cl)c1Cl [3,5-dichloro-4-ethoxy-6-methoxy-2-(trichloromethyl)pyridine] here?
Answer: active anti-cancer activity

Question: What does the source list for O=NN(CCCl)C(=O)NCCCl [BCNU (carmustine), carmustine]?
Answer: 50-DAY SURV./TOTAL [1, 6]: 0/6; % ILS [1, 6]: 0%; 50-DAY SURV./TOTAL [1, 7]: 0/6; % ILS [1, 7]: −6%; MEDIAN DAY OF DEATH [1, 7]: 8.5; 50-DAY SURV./TOTAL (P388/0 murine leukemia; [6]): 3/6; 50-DAY SURV./TOTAL (P388/0 murine leukemia; [7]): 6/6

Question: What does the source list for O=P1(N(CCCl)CCCl)NCCCO1 (stereo not shown) [CPA (cycloposphamide), cyclophosphamide]?
Answer: 50-DAY SURV./TOTAL [2, 8]: 0/6; % ILS [2, 8]: +9%; APPROX. NET LOG10 CHANGE IN TUMOR BURDEN AT END OF Rx [2, 8]: −0.6; 50-DAY SURV./TOTAL [2, 9]: 0/6; % ILS [2, 9]: +27%; APPROX. NET LOG10 CHANGE IN TUMOR BURDEN AT END OF Rx [2, 9]: −1.7; 50-DAY SURV./TOTAL (P388/0 murine leukemia; [8]): 1/6; % ILS (P388/0 murine leukemia; [8]): +172%; APPROX. NET LOG10 CHANGE IN TUMOR BURDEN AT END OF Rx (P388/0 murine leukemia; [8]): ca −6.8; 50-DAY SURV./TOTAL (P388/0 murine leukemia; [9]): 6/6

Question: With COc1nc(C(Cl)(Cl)Cl)c(Cl)c(OC(=O)c2ccc([N+](=O)[O-])o2)c1Cl [DM-NF-PEN] as the molecule, how does the T-C ([3]; IP 90 mg/kg/dose, Days 12-16) read?
Answer: >41.2 days

Question: And the Tumor-Free-Surv/Total ([3]; IP 90 mg/kg/dose, Days 12-16)?
Answer: 4/5

Question: And the “Median % ILS (dying mice only)” value ([4]; IP 135 mg/kg/dose)?
Answer: +59%

Question: And the Tumor-Free-Surv/Total ([4]; IP 135 mg/kg/dose)?
Answer: 0/5

Question: Which T-C ([3]; IP 135 mg/kg/dose, Days 11-15) does the source give for COc1nc(C(Cl)(Cl)Cl)c(Cl)c(OC(=O)C(C)(C)C)c1Cl [DM-P-PEN] here?
Answer: >42.7 days

Question: And the Tumor-Free-Surv/Total ([3]; IP 135 mg/kg/dose, Days 11-15)?
Answer: 5/5

Question: What about the T-C [3, 10] of the same molecule?
Answer: 0.9 days

Question: And the Tumor-Free-Surv/Total [3, 10]?
Answer: 0/5

Question: What about the “Median % ILS (dying mice only)” value ([4]; IP 135 mg/kg/dose) of the same molecule?
Answer: +64%

Question: What about the Tumor-Free-Surv/Total ([4]; IP 135 mg/kg/dose) of the same molecule?
Answer: 0/5

Question: And the “Median % ILS (dying mice only)” value ([4]; oral (gavage) 135 mg/kg/dose)?
Answer: +20%

Question: And the Tumor-Free-Surv/Total ([4]; oral (gavage) 135 mg/kg/dose)?
Answer: 0/5

Question: Which “50-DAY SURV./TOTAL” value [2, 11] does the source give for COc1nc(C(Cl)(Cl)Cl)c(Cl)c(O)c1Cl [DM-PEN, 3,5-dichloro-2-methoxy-4-hydroxy-6-(trichloromethyl)pyridine] here?
Answer: 0/6

Question: What about the “% ILS” value [2, 11] of the same molecule?
Answer: +22%

Question: What about the “MEDIAN DAY OF DEATH” value [2, 11] of the same molecule?
Answer: 13.5

Question: And the “50-DAY SURV./TOTAL” value [2, 12]?
Answer: 0/6

Question: What about the “% ILS” value [2, 12] of the same molecule?
Answer: +54%

Question: What about the “50-DAY SURV./TOTAL” value [2, 13] of the same molecule?
Answer: 0/6

Question: And the “% ILS” value [2, 13]?
Answer: +31%

Question: And the “MEDIAN DAY OF DEATH” value [2, 13]?
Answer: 14.5

Question: And the “50-DAY SURV./TOTAL” value [1, 11]?
Answer: 0/6

Question: And the “% ILS” value [1, 11]?
Answer: +33%

Question: What about the “APPROX. NET LOG10 CHANGE IN TUMOR BURDEN AT END OF Rx” value [1, 11] of the same molecule?
Answer: +0.8

Question: What about the “50-DAY SURV./TOTAL” value [1, 12] of the same molecule?
Answer: 0/6

Question: And the “APPROX. NET LOG10 CHANGE IN TUMOR BURDEN AT END OF Rx” value [1, 12]?
Answer: −0.6

Question: And the “MEDIAN DAY OF DEATH” value [1, 12]?
Answer: 14.0

Question: And the “50-DAY SURV./TOTAL” value [1, 13]?
Answer: 0/6

Question: What about the “% ILS” value [1, 13] of the same molecule?
Answer: +88%

Question: And the “Lethality of the dosage (LD mark beside % ILS)” value [1, 13]?
Answer: LD17

Question: What about the cures ([4]; Table 2 conditions) of the same molecule?
Answer: not

Question: What about the “Median % ILS (based on dying mice only)” value [4] of the same molecule?
Answer: 60%

Question: What about the Survivors [4] of the same molecule?
Answer: 0/5

Question: And the “50-DAY SURV./TOTAL” value [5, 11]?
Answer: 0/6

Question: And the “MEDIAN DAY OF DEATH” value [5, 11]?
Answer: 13.5

Question: What about the “50-DAY SURV./TOTAL” value [5, 12] of the same molecule?
Answer: 0/6

Question: What about the “50-DAY SURV./TOTAL” value [5, 13] of the same molecule?
Answer: 0/6

Question: What about the “Lethality of the dosage (LD mark beside % ILS)” value [5, 13] of the same molecule?
Answer: LD33

Question: What about the “activity in this tumor model (in words)” value ([5]; mouse, in vivo) of the same molecule?
Answer: none of the three showed significant activity

Question: And the “activity as cytotoxic agents in vitro” value (Cytotoxicity in vitro)?
Answer: inactive

Question: What about the “50-DAY SURV./TOTAL” value (P388/0 murine leukemia; [11]) of the same molecule?
Answer: 0/6

Question: What about the “50-DAY SURV./TOTAL” value (P388/0 murine leukemia; [12]) of the same molecule?
Answer: 0/6

Question: What about the “MEDIAN DAY OF DEATH” value (P388/0 murine leukemia; [12]) of the same molecule?
Answer: 19.0

Question: What about the “50-DAY SURV./TOTAL” value (P388/0 murine leukemia; [13]) of the same molecule?
Answer: 0/6

Question: What about the “APPROX. NET LOG10 CHANGE IN TUMOR BURDEN AT END OF Rx” value (P388/0 murine leukemia; [13]) of the same molecule?
Answer: TOXIC

Question: And the “MEDIAN DAY OF DEATH” value (P388/0 murine leukemia; [13])?
Answer: 8.5

Question: With COc1nc(C(Cl)(Cl)Cl)c(Cl)c(OC(=O)Cc2cccs2)c1Cl [DM-TA-PEN] as the molecule, how does the T-C ([3]; IP 90 mg/kg/dose, Days 12-16) read?
Answer: >41.2 days

Question: And the Tumor-Free-Surv/Total ([3]; IP 90 mg/kg/dose, Days 12-16)?
Answer: 3/5

Question: What about the “Median % ILS (dying mice only)” value ([4]; IP 90 mg/kg/dose) of the same molecule?
Answer: +75%

Question: And the Tumor-Free-Surv/Total ([4]; IP 90 mg/kg/dose)?
Answer: 0/5

Question: With COc1nc(C(Cl)(Cl)Cl)c(Cl)c(OC(=O)c2cccs2)c1Cl [DM-TC-PEN] as the molecule, how does the T-C ([3]; IP 90 mg/kg/dose, Days 12-16) read?
Answer: >41.2 days

Question: What about the Tumor-Free-Surv/Total ([3]; IP 90 mg/kg/dose, Days 12-16) of the same molecule?
Answer: 4/5

Question: And the “Median % ILS (dying mice only)” value ([4]; IP 135 mg/kg/dose)?
Answer: +100%

Question: And the Tumor-Free-Surv/Total ([4]; IP 135 mg/kg/dose)?
Answer: 0/5

Question: What about the “activity against i.c.-implanted tumor (in words)” value ([4]; in comparison to PEN and DM-PEN) of the same molecule?
Answer: significant activity

Question: What about the “Median % ILS (based on dying mice only)” value [4] of the same molecule?
Answer: 100^d %

Question: What about the Survivors [4] of the same molecule?
Answer: 0/5

Question: For N[C@@H](Cc1ccc(N(CCCl)CCCl)cc1)C(=O)O [L-PAM (melphalan), melphalan], which “50-DAY SURV./TOTAL” value [5, 14] is on record?
Answer: 0/6

Question: And the “% ILS” value [5, 14]?
Answer: +14%

Question: And the “APPROX. NET LOG10 CHANGE IN TUMOR BURDEN AT END OF Rx” value [5, 14]?
Answer: −1.8

Question: What about the “MEDIAN DAY OF DEATH” value [5, 14] of the same molecule?
Answer: 18.0

Question: And the “50-DAY SURV./TOTAL” value [5, 6]?
Answer: 0/6

Question: And the “% ILS” value [5, 6]?
Answer: +14%

Question: And the “APPROX. NET LOG10 CHANGE IN TUMOR BURDEN AT END OF Rx” value [5, 6]?
Answer: −1.8

Question: What about the “MEDIAN DAY OF DEATH” value [5, 6] of the same molecule?
Answer: 18.0

Question: And the “50-DAY SURV./TOTAL” value (P388/0 murine leukemia; [14])?
Answer: 6/6

Question: And the “50-DAY SURV./TOTAL” value (P388/0 murine leukemia; [6])?
Answer: 5/6

Question: And the “% ILS” value (P388/0 murine leukemia; [6])?
Answer: +208%

Question: And the “APPROX. NET LOG10 CHANGE IN TUMOR BURDEN AT END OF Rx” value (P388/0 murine leukemia; [6])?
Answer: ca −6.8

Question: And the “MEDIAN DAY OF DEATH” value (P388/0 murine leukemia; [6])?
Answer: 34.0
